Laboratory results taken from patent publication US8697683B2, “Azetidinyl diamides as monoacylglycerol lipase inhibitors” (Janssen Pharmaceutica, NV, priority 2009, dated 2014).

Legend:
[1] = murine model of acute inflammation; cited from earlier work
[2] = system: CCI-induced cold hypersensitivity; assay: Chronic Constriction Injury (CCI)-Induced Model of Neuropathic Pain-Cold Acetone-Hypersensitivity Test; format: in vivo; settings: Sprague-Dawley rats, 30 mg/kg p.o., HPβCD vehicle, last time point 4 h
Experimental: Fourteen to 35 days following CCI surgery, subjects were placed in elevated observation chambers containing wire mesh floors, and five applications of acetone (0.05 mL/application separated by about 5 min) were spritzed onto the plantar surface of the paw using a multidose syringe. An abrupt withdrawal or lifting of the paw was considered a positive response. The number of positive responses was recorded for each rat over the five trials. Following baseline withdrawal determinations, compounds were administered in the indicated vehicle, by the indicated route (see Table 6). The number of withdrawals was re-determined 1 to 4 h after compound administration.

[3] = system: tactile allodynia; assay: Spinal Nerve Ligation (SNL) Model of Neuropathic Pain-Tactile Allodynia Test; format: in vivo, rat; settings: L5 SNL rats, 30 mg/kg p.o., HPβCD vehicle, last time point 4 h
From the text: For lumbar 5 (L5) spinal nerve ligation (SNL) studies, anesthesia was induced and maintained on isoflurane inhalation. Fur was clipped over the dorsal pelvic area, and a 2-cm skin incision was made just left of midline over the dorsal aspect of the L4-S2 spinal segments, followed by separation of the paraspinal muscles from spinous processes. The transverse process of L6 was then carefully removed, and the L5 spinal nerve was identified. The left L5 spinal nerve was then ligated tightly with 6-0 silk thread, the muscle was sutured with 4-0 vicryl, and the skin was closed with wound clips. Following surgery, s.c. saline (5 mL) was administered. Behavioral testing was performed four weeks post-ligation. Following baseline von Frey determinations to verify the presence of mechanical allodynia, L5 SNL rats were orally administered the indicated vehicle or drug. […] which the paw ipsilateral to the nerve ligation was withdrawn from the application of a series of calibrated von Frey filaments (0.4, 0.6, 1.0, 2.0, 4, 6, 8 and 15 g; Stoelting; Wood Dale, Ill.). Beginning at an intermediate stiffness (2.0 g), filaments were applied to the mid-plantar hind paw for approximately 5 seconds. to determine the response threshold, a brisk paw withdrawal led to the presentation of the next lighter stimulus, whereas a lack of a withdrawal response led to the presentation of the next stronger stimulus. A total of four responses after the first threshold detection were collected. The 50% withdrawal thresholds were interpolated by the method of Dixon, Efficient analysis of experimental observations. Annu. Rev. Pharmacol. […] Neurosci. […] Threshold data from von Frey filament testing were reported as withdrawal threshold in grams. Data were normalized and results are presented as % MPE (maximum possible effect) of the drug calculated according to the following formula: [formula]

[4] = system: CFA induced paw pressure hypersensitivity; assay: CFA-Induced Paw Pressure Hypersensitivity; format: in vivo; settings: rat, dose 30, s.c., HPβCD vehicle, time 1 h
Experimental: Prior to testing, rats were acclimated to the handling procedure twice a day for a period of two days. […] The endpoint was automatically reached upon hindpaw withdrawal, and the terminal force was noted (in grams). An initial (baseline) response threshold to the mechanical stimulus was recorded for each animal prior to the injection of complete Freund's adjuvant (CFA). Forty hr following intraplantar CFA injection, the response threshold of the animal to the mechanical stimulus was re-evaluated and compared to the animal's baseline response threshold. A response was defined as a withdrawal of the hindpaw, a struggling to remove the hindpaw or vocalization. […] Immediately following the post-CFA threshold assessment, rats were administered the indicated test compound or vehicle. Post-treatment withdrawal thresholds were assessed at 1 h. Paw withdrawal thresholds were converted to percent reversal of hypersensitivity according to the following formula: % reversal=[(post treatment response−predose response)/(baseline response−predose response)]×100.

## O=C(Nc1cccc(-c2ccccc2)c1)OC1CCCCC1 [URB602]
[1]
  antinociceptive effect: showed an antinociceptive effect

## O=C(c1ccccc1)N1CCN(C2CN(C(=O)c3ccc(-c4ccccc4)cc3)C2)CC1 [Cpd 5, 1-[1-(Biphenyl-4-ylcarbonyl)azetidin-3-yl]-4-(phenylcarbonyl)piperazine]
[2]
  peak percent inhibition: 26.7%

## O=C(c1ccc2c(ccn2-c2ccc(F)cc2)c1)N1CC(N2CCN(C(=O)c3nccs3)CC2)C1 [Cpd 487, 1-(4-Fluorophenyl)-5-({3-[4-(1,3-thiazol-2-ylcarbonyl)piperazin-1-yl]azetidin-1-yl}carbonyl)-1H-indole]
[3]
  peak % MPE: 61.2%
[4]
  percent reversal: 61.8%
[2]
  peak percent inhibition: 100%

## O=C(c1ccc2c(ccn2-c2ccc(F)c(F)c2)c1)N1CC(N2CCN(C(=O)c3nccs3)CC2)C1 [Cpd 1362, 1-(3,4-Difluorophenyl)-5-({3-[4-(1,3-thiazol-2-ylcarbonyl)piperazin-1-yl]azetidin-1-yl}carbonyl)-1H-indole]
[3]
  peak % MPE: 84.3%
[4]
  percent reversal: 56.7%
